In patent US20250085273A1, “NOVEL RAPID DRUG DISCOVERY FOR SEPSIS AND AGENTS FOR USE AS SEPSIS THERAPY” (priority 2023, published 2025):
Where a name gives a salt, the structure may show the parent alone. Read-outs that look alike come from different tables or passages of the source.

Assays:
Type in all cases: in vivo, Danio rerio
[1] = system: 3-dpf Zebrafish Embryos Challenged with LPS (P. aeruginosa 60 μg/mL); details: P. aeruginosa LPS 60 μg/mL, compound 10 μM; for 3 dpf Embryos Percent Rescue (Mort + Tail Edema): initial 3-dpf screen shown for reference; for Percent Rescue (Mort + Tail Edema): 3-dpf embryos, n=16; for Percent Rescue (Mort + Tail Edema) / rescue of tail edema and mortality (sepsis rescue rate) at 3-dpf: 24 hours
Description: Healthy, normally developing embryos collected from the adult AB zebrafish spawning events were treated with 75 μM of 1-phenyl 2-thiourea (PTU) in EM prior to 24 hours post fertilization (hpf) to block pigmentation formation (Karlsson et al, 2001). These embryos were then placed into an incubator at 28.5° C. until they reached 3-dpf. Embryos were then removed from the incubator and plated individually into the wells of 96 well plates containing 50 μL of EM.
A super stock of 120 μg/mL of P. aeruginosa LPS was made up in EM in a glass container. This stock was then used to make sub stocks of 120 μg/mL P. aeruginosa LPS (positive control) and 120 μg/mL P. aeruginosa LPS containing 20 μM of test drug in glass scintillation vials. Immediately after the sub stocks were made, the wells were dosed with either 50 μL of 120 μg/mL of P. aeruginosa, 120 μg/mL of P. aeruginosa with 20 μM of test drug, or EM (1:1 Dilution). Each 96 well plate had one LPS positive control (n=16), 4 different test drugs with P. aeruginosa LPS (n=16 per drug), and one negative control (n=16). Once the plates were dosed, they were covered with parafilm and placed into an incubator at 28.5° C. The plates were removed at 6- and 24-hours post exposure to be scored for tail edema and mortality. All 644 drugs evaluated for rescue from mortality and tail edema induced by P. aeruginosa LPS exposure as compared to LPS-treated controls after 24 hours of exposure.
3-dpf embryos were challenged with 60 μg/mL P. aeruginosa LPS in combination with single 10 μM concentration of each compound for 24 hours (n=16 fish per compound). […] Other 29 compounds exceeded 60% rescue of tail edema and mortality at 24 hours post exposure.

[2] = system: 5-dpf zebrafish larvae challenged with P. aeruginosa LPS 60 μg/mL; details: compound 10 μM; for 5 dpf Embryos Percent Rescue (Mort + Tail Edema): 5-dpf larvae
From the text: Confirmatory testing followed the same methods as the initial testing but used 5-dpf larvae instead of the 3-dpf larvae that were used for the initial screening because they were easier to handle and replicated the methods of Philip et al. (2017).
Next, follow-on 5-dpf screening was implemented to confirm initial screening with more larvae. Zebrafish swim faster at 5-dpf (requiring more time to load 96 plates), and all major organ systems are functioning at 5-dpf and thus determined as advantageous for follow-on confirmation.

[3] = system: larval zebrafish exposed to Pseudomonas aeruginosa 60 μg/mL lipopolysaccharide (LPS); experiment: Zebrafish endotoxicity/sepsis model drug screening, statements without larval stage; details: for rescue from mortality / rescue from vascular damage (tail edema): zebrafish endotoxemia model
From the text: To identify potential sepsis drug candidates, an optimized larval zebrafish model of endotoxicity/sepsis was used to screen commercial libraries of U.S. Food and Drug Administration (FDA)-approved drugs and other active pharmaceutical ingredients (API) known to affect pathways implicated in the initiation and progression of sepsis in humans (i.e., inflammation, mitochondrial dysfunction, coagulation, and apoptosis). In this model, endotoxicity was induced in 3- and 5-day post fertilization larval zebrafish (characterized by mortality and tail fin edema (vascular leakage)) by immersion exposure to Pseudomonas aeruginosa 60 μg/mL lipopolysaccharide (LPS) for 24 hours, then screened for the rescue potential of 644 selected drugs simultaneously with LPS at 10 μM. After LPS exposure, a neurobehavioral assay (light-dark test) was performed to further evaluate rescue from endotoxicity and to determine possible off-target drug side effects.

[4] = system: zebrafish (4 dpf pre-treated, LPS exposure at 5-dpf) challenged with P. aeruginosa LPS 60 μg/mL; details: number of n = 16 fish; for 24 hour Tail Edema, No-Drug Pretreatment: 10 μM drug with LPS 60 μg/mL; for 24 hour Tail Edema, No-Drug Pretreatment / 24 Hour Mortality and Tail Edema, No-Drug Pretreatment / 24 Hour Mortality, No Drug Pretreatment: no 24-hour pre-treatment; for 24 Hour Mortality and Tail Edema, Drug Pretreatment / 24 Hour Mortality, Drug Pretreatment: 24-hour 10 μM drug pre-treatment; for 24 hour Tail Edema, Drug Pretreatment: 24-hour 10 μM drug pre-treatment before LPS 60 μg/mL
Description: Drugs identified with >80% rescue were subjected to additional testing. Drug pretreatment for 24 hours prior to LPS challenge was evaluated to determine if any prophylactic benefit could be realized with any of the top rescue drugs. The intent was to determine if drug pre-treatment might be used at the point of injury as a preventative therapeutic before the onset of infection and development of sepsis. Parallel groups of fish received a 24-hour drug pre-treatment or no drug pre-treatment prior to LPS challenge. For this test, 4 dpf PTU-treated zebrafish embryos were placed into 96 well plates containing 100 μL of EM. […] All plates were covered with parafilm and placed into an incubator at 28.5° C. for 24 hours. […] Once the plates were dosed, they were covered with parafilm and placed into an incubator at 28.5° C. The plates were removed at 6- and 24-hours post exposure and scored for tail edema and mortality. Once the 24-hour tail edema and mortality endpoints were collected, a neurobehavioral test was conducted as described in section 2.8.

[5] = system: zebrafish exposed to P. aeruginosa LPS; experiment: Model compound testing in the optimized zebrafish sepsis model (varying LPS dose ranges); details: for complete rescue of exposed fish: 60 μg/mL LPS challenge concentration
Description: Three sources of LPS were evaluated: E. coli 0111:B4, P. aeruginosa Sigma L9143, and K. pneumoniae. E. coli 0111:B4 LPS was selected as the reference LPS used by Philip et al. (2017). P. aeruginosa LPS is commonly associated with infections in hospitals, accounting for an estimated 32,600 cases and resulting in an estimated 2,700 deaths in 2017 (CDC Report 2019). P. aeruginosa infections are also a common cause of sepsis in both patients with severe burns and immunocompromised patients. K. pneumoniae LPS has military relevance related to battlefield injury infections (Kiley et al., 2021). Initial range finding LC50 tests with larval zebrafish were conducted for each LPS strain at both 3-dpf and 5-dpf. […] (E. coli 0111:B4 was also tested at higher concentrations, 400, 800, and 1000 μg/mL due a lack of toxicity within the initial dose range.) Well plates were then covered with parafilm and placed into an incubator at 28.5° C. for 24 hours. After 6 and 24 hours, the plates were removed and scored for mortality, tail edema, and ROS production. The tail edema endpoint evaluates vascular leakage from caudal fin in response to LPS exposure (FIG. 2). ROS production was determined as described by Philip et al. (2017) by adding 2,7-dichloroflurescein diacetate (100 μM) to the wells containing the zebrafish larvae and incubating them in a 100% dark photoperiod incubator at 28.5° C. for one hour. Florescent images of the incubated zebrafish were then captured with a Keyence BZ-X710 fluorescent microscope using 10× objective with a GFP filter and fixed 1/15 second exposure for all imaging. […] Results from the LPS toxicity testing and endpoint screening were used to develop the optimized testing procedure through evaluation in selected model compounds, as described in the next section and in the results.
The optimized zebrafish sepsis model was evaluated against compounds previously shown to have efficacy in previous zebrafish sepsis models: fasudil, hydrocortisone, dexamethasone, and fisetin. Fasudil, an anti-vascular leakage compound (inhibitor of the RhoA/Rho-kinase pathway) was shown by Philip et al. (2017) to rescue zebrafish from LPS-induced mortality, ROS production, and tail fin edema. Fasudil also rescued LPS-induced vascular leakage in murine models of experimental sepsis (Li et al., 2010) and reduced acute lung injury in septic rats through inhibition of the Rho/ROCK signaling pathway (Wang et al., 2018). […] Endpoints evaluated with model compounds included mortality, tail edema, and ROS at 6- and 24-hours post exposure to varying dose ranges of LPS.
LC50s for the LPS tests were determined using the Trimmed Spearmen-Karber method (Hamilton et al., 1977). The tail edema and mortality data from the initial and confirmatory drug testing was analyzed using GraphPad Prism 9 using Fisher's Exact Test. Each drug treatment group was compared pairwise with the on-board positive control group on each test plate. Statistical significance was determined with values of p≤0.05. Neurological behavioral testing data was analyzed by Ethovision software that produced an activity analysis profile per frame for each well of the 96 well plates. Any dead embryos were removed from the data set, and the remaining data set was imported into Excel. […] The behavioral data was then statistically analyzed by drug per phase using a 2 tailed t-test to determine statistical significance p≤0.01.

Row | Compound | 3 dpf Embryos Percent Rescue (Mort + Tail Edema) [1] | 5 dpf Embryos Percent Rescue (Mort + Tail Edema) [2] | rescue from mortality [3] | rescue from vascular damage (tail edema) [3] | Percent Rescue (Mort + Tail Edema) [1] | rescue of tail edema and mortality (sepsis rescue rate) at 3-dpf [1] | rescue of tail edema and mortality (sepsis rescue rate) at 5-dpf [2] | 24 hour Tail Edema, No-Drug Pretreatment [4] | 24 Hour Mortality and Tail Edema, Drug Pretreatment [4] | 24 Hour Mortality, Drug Pretreatment [4] | 24 hour Tail Edema, Drug Pretreatment [4] | 24 Hour Mortality and Tail Edema, No-Drug Pretreatment [4] | 24 Hour Mortality, No Drug Pretreatment [4] | rescue of tail edema and mortality (sepsis rescue rate) at 5-dpf ([2]; listed as ketanserin tartrate) | complete rescue of exposed fish [5] | mortality at 24 hours post exposure ([5]; 24 hours post LPS exposure) | efficacy in the zebrafish endotoxicity sepsis model ([3]; in vivo) | fish with tail edemas ([3]; 6 hours post exposure) | fish with tail edema ([3]; 24 hours)
1 | O=C(O)c1cn(C2CC2)c2cc(N3CCNCC3)c(F)cc2c1=O [Compound 34, Ciprofloxacin (hydrochloride monohydrate)] | 13% | 6% | provided rescue from mortality | did not elicit rescue from vascular damage |  |  |  |  |  |  |  |  |  |  |  |  |  |  | 
2 | Cc1ccc(Sc2ccccc2N2CCNCC2)c(C)c1 [Compound 376, Vortioxetine] | 63% | 88% |  |  | 63% | 63% | 88% | 0 fish | 16 fish | 16 fish | 0 fish | 16 fish | 16 fish |  |  |  |  |  | 
3 | CCCCCCCCCCCCCCCC(=O)OC1CCCn2c1nc(C)c(CCN1CCC(c3noc4cc(F)ccc34)CC1)c2=O (centres unmarked) [Compound 429, Paliperidone palmitate] | 94% | 100% |  |  | 94% | 94% | 100% | 3 fish | 12 fish | 10 fish | 2 fish | 9 fish | 6 fish |  |  |  |  |  | 
4 | Clc1ccc(CCCOCCCN2CCCCC2)cc1 [Compound 435, Pitolisant] | 94% | 88% |  |  | 94% | 94% | 88% | 2 fish | 16 fish | 16 fish | 0 fish | 15 fish | 13 fish |  |  |  |  |  | 
5 | O=C(c1ccc(F)cc1)C1CCN(CCn2c(=O)[nH]c3ccccc3c2=O)CC1 [Compound 437, Ketanserin (tartrate)] | 100% | 100% |  |  | 100% | 100% | 100% | 0 fish | 0 fish | 0 fish | 0 fish | 0 fish | 0 fish | 100% |  |  |  |  | 
6 | O=S(=O)(c1cccc2cnccc12)N1CCCNCC1 [Fasudil] |  |  |  |  |  |  |  |  |  |  |  |  |  |  | Neither compound showed complete rescue | statistically significant (p=0.0233) reduction in mortality |  |  | 
7 | O=c1c(O)c(-c2ccc(O)c(O)c2)oc2cc(O)ccc12 [Fisetin] |  |  |  |  |  |  |  |  |  |  |  |  |  |  | Neither compound showed complete rescue |  |  |  | 
8 | CN1C2CCCC1CC(NC(=O)c1nn(C)c3ccccc13)C2 (centres unmarked) [Granisetron] |  |  | significant reduction in mortality | did not rescue from vascular damage (tail edema) |  |  |  |  |  |  |  |  |  |  |  |  |  |  | 
9 | Cc1nccn1CC1CCc2c(c3ccccc3n2C)C1=O (centres unmarked) [Ondansetron] |  |  |  |  |  |  |  |  |  |  |  |  |  |  |  |  | not efficacious |  | 
10 | Ferric citrate [Compound 340] | 94% | 81% |  |  | 94% | 94% | 81% | 2 fish | 15 fish | 15 fish | 0 fish | 15 fish | 13 fish |  |  |  |  | 9 of 16 fish | 1 of 16
